# According to paper PMC4657098, “A Review of the Updated Pharmacophore for the Alpha 5 GABA(A) Benzodiazepine Receptor Model” (International Journal of Medicinal Chemistry, 2015):
# pKi: −log10 of the molar value.
# Assays:
# C57BL/6J mice = format: in vivo
# Text: Figure 3 XLi-093 (4) effects on cognition enhancement by Wenger et al. (data on statistical significance not shown, unpublished results). Effects of 4 on cognition from the mean delay achieved by C57BL/6J mice titrating delayed matching-to-position schedule.
# 5ht2a = molecular target: T1, 5ht2a (Homo sapiens, UniProt P28223); assay: PDSP receptor binding, 5ht2a; conditions: PDSP primary screen at 10 µM
# T1 construct: purchased NIMH PDSP (Psychoactive Drug Screening Program, Roth lab, Case Western Reserve)
# 5ht2c = molecular target: T2, 5ht2c (Homo sapiens, UniProt P28335); assay: PDSP receptor binding, 5ht2c; conditions: PDSP primary screen at 10 µM
# T2 construct: purchased NIMH PDSP (Psychoactive Drug Screening Program, Roth lab, Case Western Reserve)
# 5ht5a = molecular target: T3, 5ht5a (Homo sapiens, UniProt P47898); assay: PDSP receptor binding, 5ht5a; conditions: PDSP primary screen at 10 µM
# T3 construct: purchased NIMH PDSP (Psychoactive Drug Screening Program, Roth lab, Case Western Reserve)
# α2C = molecular target: T4, α2C (Homo sapiens, UniProt P18825); assay: PDSP receptor binding, α2C; conditions: PDSP primary screen at 10 µM
# T4 construct: purchased NIMH PDSP (Psychoactive Drug Screening Program, Roth lab, Case Western Reserve)
# Beta2 = molecular target: T5, Beta2 (Homo sapiens, UniProt P07550); assay: PDSP receptor binding, Beta2; conditions: PDSP primary screen at 10 µM
# T5 construct: purchased NIMH PDSP (Psychoactive Drug Screening Program, Roth lab, Case Western Reserve)
# CB2 = molecular target: T6, CB2 (Homo sapiens, UniProt P34972); assay: PDSP receptor binding, CB2; conditions: PDSP primary screen at 10 µM
# T6 construct: purchased NIMH PDSP (Psychoactive Drug Screening Program, Roth lab, Case Western Reserve)
# D1 = molecular target: T7, D1 (Homo sapiens, UniProt P21728); assay: PDSP receptor binding, D1; conditions: PDSP primary screen at 10 µM
# T7 construct: purchased NIMH PDSP (Psychoactive Drug Screening Program, Roth lab, Case Western Reserve)
# D2 = molecular target: T8, D2 (Homo sapiens, UniProt P14416); assay: PDSP receptor binding, D2; conditions: PDSP primary screen at 10 µM
# T8 construct: purchased NIMH PDSP (Psychoactive Drug Screening Program, Roth lab, Case Western Reserve)
# D3 = molecular target: T9, D3 (Homo sapiens, UniProt P35462); assay: PDSP receptor binding, D3; conditions: PDSP primary screen at 10 µM
# T9 construct: purchased NIMH PDSP (Psychoactive Drug Screening Program, Roth lab, Case Western Reserve)
# D4 = molecular target: T10, D4 (Homo sapiens, UniProt P21917); assay: PDSP receptor binding, D4; conditions: PDSP primary screen at 10 µM
# T10 construct: purchased NIMH PDSP (Psychoactive Drug Screening Program, Roth lab, Case Western Reserve)
# D5 = molecular target: T11, D5 (Homo sapiens, UniProt P21918); assay: PDSP receptor binding, D5; conditions: PDSP primary screen at 10 µM
# T11 construct: purchased NIMH PDSP (Psychoactive Drug Screening Program, Roth lab, Case Western Reserve)
# H1 = molecular target: T12, H1 (Homo sapiens, UniProt P35367); assay: PDSP receptor binding, H1; conditions: PDSP primary screen at 10 µM
# T12 construct: purchased NIMH PDSP (Psychoactive Drug Screening Program, Roth lab, Case Western Reserve)
# Imidaz oline = assay: PDSP receptor binding, Imidazoline; conditions: PDSP primary screen at 10 µM
# M4 = molecular target: T13, M4 (Homo sapiens, UniProt P08173); assay: PDSP receptor binding, M4; conditions: PDSP primary screen at 10 µM
# T13 construct: purchased NIMH PDSP (Psychoactive Drug Screening Program, Roth lab, Case Western Reserve)
# NET = molecular target: T14, NET (Homo sapiens, UniProt P23975); assay: PDSP receptor binding, NET; conditions: PDSP primary screen at 10 µM
# T14 construct: purchased NIMH PDSP (Psychoactive Drug Screening Program, Roth lab, Case Western Reserve)
# σ1 = molecular target: T15, σ1 (Homo sapiens, UniProt Q99720); assay: PDSP receptor binding, σ1; conditions: PDSP primary screen at 10 µM
# T15 construct: purchased NIMH PDSP (Psychoactive Drug Screening Program, Roth lab, Case Western Reserve)
# α1β3γ2 BzR/GABA(A) = conditions: Figure 1; LTK cells; read-out: Binding affinity α1; cited from earlier work
# α3β3γ2 BzR/GABA(A) = conditions: Figure 1; LTK cells; read-out: Binding affinity α3; cited from earlier work
# α5β3γ2 GABAA receptor = molecular target: T16, α5β3γ2 GABAA receptor (Homo sapiens, UniProt P18507+P31644); conditions: cited from earlier work
# T16 construct: expressed in transfected cells; host or cells: Xenopus oocytes
# α1β3γ2 GABAA/BzR = α1β3γ2 GABAA/BzR (Homo sapiens, UniProt P14867+P18507); assay: Competition binding to HEK cell membranes, α1β3γ2; parameters: expressed in transfected cells; conditions: Ki α1
# α5β3γ2 GABAA/BzR = α5β3γ2 GABAA/BzR (Homo sapiens, UniProt P18507+P31644); assay: Competition binding to HEK cell membranes, α5β3γ2; parameters: expressed in transfected cells; conditions: Ki α5
# α6β3γ2 GABAA/BzR = α6β3γ2 GABAA/BzR (Homo sapiens, UniProt P18507+Q16445); assay: Competition binding to HEK cell membranes, α6β3γ2; parameters: expressed in transfected cells; conditions: Ki α6
structure (smiles),measurement,setting,value
"C#Cc1ccc2c(c1)C(=O)N(C)Cc1c(C(=O)OCCCOC(=O)c3ncn4c3CN(C)C(=O)c3cc(C#C)ccc3-4)ncn1-2 [XLi-093 (4), 1,3-Bis(8-acetyleno-5,6-dihydro-5-methyl-6-oxo-4H-imidazo[1,5a][1,4]benzodiazepine-3-carboxy) propyl diester]",performance (mean delay achieved),"C57BL/6J mice; C57BL/6J mice, preliminary data, unpublished results (Wenger et al.)",enhances performance
same,crossing of the blood brain barrier,C57BL/6J mice; inferred from the cognition effect in mice,does cross the blood brain barrier
same,5ht2a binding,5ht2a,∗ (“∗” indicates “primary missed” (<50% inhibition at 10 µM))
same,5ht2c binding,5ht2c,∗ (“∗” indicates “primary missed” (<50% inhibition at 10 µM))
same,5ht5a binding,5ht5a,∗ (“∗” indicates “primary missed” (<50% inhibition at 10 µM))
same,α2C binding,α2C,∗ (“∗” indicates “primary missed” (<50% inhibition at 10 µM))
same,Beta2 binding,Beta2,∗ (“∗” indicates “primary missed” (<50% inhibition at 10 µM))
same,CB2 binding,CB2,∗ (“∗” indicates “primary missed” (<50% inhibition at 10 µM))
same,D1 binding,D1,∗ (“∗” indicates “primary missed” (<50% inhibition at 10 µM))
same,D2 binding,D2,∗ (“∗” indicates “primary missed” (<50% inhibition at 10 µM))
same,D3 binding,D3,∗ (“∗” indicates “primary missed” (<50% inhibition at 10 µM))
same,D4 binding,D4,∗ (“∗” indicates “primary missed” (<50% inhibition at 10 µM))
same,D5 binding,D5,∗ (“∗” indicates “primary missed” (<50% inhibition at 10 µM))
same,H1 binding,H1,∗ (“∗” indicates “primary missed” (<50% inhibition at 10 µM))
same,Imidaz oline binding,Imidaz oline,∗ (“∗” indicates “primary missed” (<50% inhibition at 10 µM))
same,M4 binding,M4,∗ (“∗” indicates “primary missed” (<50% inhibition at 10 µM))
same,NET binding,NET,∗ (“∗” indicates “primary missed” (<50% inhibition at 10 µM))
same,σ1 binding,σ1,∗ (“∗” indicates “primary missed” (<50% inhibition at 10 µM))
same,pKi,α1β3γ2 BzR/GABA(A),< 6.00
same,pKi,α3β3γ2 BzR/GABA(A),6.07
same,"modulation of GABA induced chloride flux, α5β3γ2",α5β3γ2 GABAA receptor; at 1 μM,very slightly inhibited
same,"influence on benzodiazepine (Valium) stimulation of GABA-induced current, α5β3γ2",α5β3γ2 GABAA receptor,shifted the diazepam dose response curve to the right
same,inhibition of diazepam-stimulated currents in α5β3γ2 receptors,α5β3γ2 GABAA receptor,dose dependently and completely inhibit
same,pKi,α1β3γ2 GABAA/BzR,< 6.00
same,pKi,α5β3γ2 GABAA/BzR,7.82
same,pKi,α6β3γ2 GABAA/BzR,< 5.70
